# Patent US9546164B2 (GENENTECH, INC., priority 2013, dated 2017)
# Target: hNav1.7 (Homo sapiens (Human), UniProt Q15858)
# Experiment: Tritiated sulfonamide competitive binding to membranes from cells expressing hNav1.7 and the β1 subunit;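 further: Filter-bound radioactivity counted by liquid scintillation, nonspecific binding defined with excess unlabelled ligand, IC50 fitted to percent inhibition of specific binding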
# Settings: not given
# Chain of hNav1.7 (Q15858 other isoform, or with tags, fused parts or gaps): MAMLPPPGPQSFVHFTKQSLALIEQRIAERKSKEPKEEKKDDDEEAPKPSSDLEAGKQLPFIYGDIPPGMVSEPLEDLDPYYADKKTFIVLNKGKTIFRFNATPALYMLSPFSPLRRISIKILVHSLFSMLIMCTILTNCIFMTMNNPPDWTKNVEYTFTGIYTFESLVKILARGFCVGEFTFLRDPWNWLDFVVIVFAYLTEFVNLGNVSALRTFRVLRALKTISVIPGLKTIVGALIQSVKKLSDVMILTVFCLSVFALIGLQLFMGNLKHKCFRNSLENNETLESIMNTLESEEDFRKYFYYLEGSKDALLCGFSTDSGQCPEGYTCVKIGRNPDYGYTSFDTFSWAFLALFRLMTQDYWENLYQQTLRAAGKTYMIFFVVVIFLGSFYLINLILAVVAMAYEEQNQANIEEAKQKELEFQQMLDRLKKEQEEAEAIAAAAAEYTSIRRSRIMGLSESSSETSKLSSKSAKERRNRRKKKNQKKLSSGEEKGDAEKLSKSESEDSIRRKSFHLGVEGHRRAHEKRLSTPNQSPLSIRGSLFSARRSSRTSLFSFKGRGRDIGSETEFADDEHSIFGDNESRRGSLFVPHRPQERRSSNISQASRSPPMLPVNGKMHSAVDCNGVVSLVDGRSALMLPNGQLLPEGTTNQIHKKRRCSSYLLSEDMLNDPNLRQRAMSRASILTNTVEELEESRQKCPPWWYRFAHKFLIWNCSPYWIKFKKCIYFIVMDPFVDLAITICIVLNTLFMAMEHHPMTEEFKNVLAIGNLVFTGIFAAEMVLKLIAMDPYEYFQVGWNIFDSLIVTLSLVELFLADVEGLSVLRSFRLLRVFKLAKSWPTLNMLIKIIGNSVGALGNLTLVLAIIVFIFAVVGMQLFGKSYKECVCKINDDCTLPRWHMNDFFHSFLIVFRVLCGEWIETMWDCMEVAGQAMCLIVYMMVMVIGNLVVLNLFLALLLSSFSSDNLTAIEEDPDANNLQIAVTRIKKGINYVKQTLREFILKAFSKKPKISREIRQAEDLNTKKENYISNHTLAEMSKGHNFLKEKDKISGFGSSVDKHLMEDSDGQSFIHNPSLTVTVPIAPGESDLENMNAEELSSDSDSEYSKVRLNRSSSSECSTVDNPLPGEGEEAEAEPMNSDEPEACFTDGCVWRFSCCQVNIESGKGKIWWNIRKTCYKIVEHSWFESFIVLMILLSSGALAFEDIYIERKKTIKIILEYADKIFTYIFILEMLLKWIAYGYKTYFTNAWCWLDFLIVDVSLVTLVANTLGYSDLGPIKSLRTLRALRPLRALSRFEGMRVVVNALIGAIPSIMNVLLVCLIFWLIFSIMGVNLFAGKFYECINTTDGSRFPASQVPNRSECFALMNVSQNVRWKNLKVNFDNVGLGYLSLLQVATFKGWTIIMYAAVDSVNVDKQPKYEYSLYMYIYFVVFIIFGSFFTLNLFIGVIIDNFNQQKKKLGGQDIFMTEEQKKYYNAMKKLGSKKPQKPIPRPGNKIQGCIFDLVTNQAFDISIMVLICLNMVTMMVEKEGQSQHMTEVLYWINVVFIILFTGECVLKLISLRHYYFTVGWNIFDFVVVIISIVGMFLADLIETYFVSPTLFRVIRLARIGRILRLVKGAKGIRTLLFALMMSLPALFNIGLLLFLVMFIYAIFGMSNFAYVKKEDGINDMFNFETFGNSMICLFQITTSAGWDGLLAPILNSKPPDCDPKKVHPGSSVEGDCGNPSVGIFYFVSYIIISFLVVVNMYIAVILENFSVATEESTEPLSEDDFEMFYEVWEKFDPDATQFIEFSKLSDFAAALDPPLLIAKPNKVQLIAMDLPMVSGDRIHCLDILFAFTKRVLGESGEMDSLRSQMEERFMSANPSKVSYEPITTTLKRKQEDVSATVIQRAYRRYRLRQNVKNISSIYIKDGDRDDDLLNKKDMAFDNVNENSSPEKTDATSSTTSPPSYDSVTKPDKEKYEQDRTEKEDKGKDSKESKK
# Chain of hNav1.7 (Q07699 19-218 partner): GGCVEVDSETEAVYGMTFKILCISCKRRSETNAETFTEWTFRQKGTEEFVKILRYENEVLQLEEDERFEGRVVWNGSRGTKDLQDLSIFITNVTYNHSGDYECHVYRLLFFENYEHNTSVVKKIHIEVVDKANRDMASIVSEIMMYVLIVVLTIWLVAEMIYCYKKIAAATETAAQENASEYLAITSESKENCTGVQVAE
row,IC50 [nM],SMILES
1,3.4,"C[C@H](c1cc(Cl)cc(Cl)c1)N1CCC(COc2cc(F)c(C(=O)NS(=O)(=O)C3CC3)cc2C2CC2)CC1 [Example 269, (R)-5-cyclopropyl-N-(cyclopropylsulfonyl)-4-((1-(1-(3,5-dichlorophenyl)ethyl)piperidin-4-yl)methoxy)-2-fluorobenzamide]"

# Same assay, conditions: read-out: Ligand Binding Assay; 100 pM [3H]compound, membranes with hNav1.7 and β1 subunit, 18 h, room temperature
row,IC50 [nM],SMILES
1,47,"CS(=O)(=O)NC(=O)c1cc(C2CC2)c(OCC2CCN([C@H](CO)c3cc(Cl)cc(Cl)c3)CC2)cc1F [Example 267, (S)-5-cyclopropyl-4-((1-(1-(3,5-dichlorophenyl)-2-hydroxyethyl)piperidin-4-yl)methoxy)-2-fluoro-N-(methylsulfonyl)benzamide]"
2,8.5,"CS(=O)(=O)NC(=O)c1cc(C2CC2)c(OCC2CCN(S(=O)(=O)c3cc(Cl)cc(Cl)c3)CC2)cc1F [Example 273, 5-Cyclopropyl-4-((1-((3,5-dichlorophenyl)sulfonyl)piperidin-4-yl)methoxy)-2-fluoro-N-(methylsulfonyl)benzamide]"
3,68,"CS(=O)(=O)NC(=O)c1cc(C2CC2)c(OCC2CN(S(=O)(=O)c3cc(Cl)cc(Cl)c3)C2)cc1F [Example 274, 5-Cyclopropyl-4-((1-((3,5-dichlorophenyl)sulfonyl)azetidin-3-yl)methoxy)-2-fluoro-N-(methylsulfonyl)benzamide]"
4,6.9,"O=C(NS(=O)(=O)C1CC1)c1cc(C2CC2)c(OCC2CCN(S(=O)(=O)c3cc(Cl)cc(Cl)c3)CC2)cc1F [Example 275, 5-Cyclopropyl-N-(cyclopropylsulfonyl)-4-((1-((3,5-dichlorophenyl)sulfonyl)piperidin-4-yl)methoxy)-2-fluorobenzamide]"
5,8.1,"C[C@@H](c1ccc(Cl)cc1Cl)N1CCC(C)(COc2cc(F)c(C(=O)NS(C)(=O)=O)cc2C2CC2)CC1 [Example 280, (S)-5-cyclopropyl-4-((1-(1-(2,4-dichlorophenyl)ethyl)-4-methylpiperidin-4-yl)methoxy)-2-fluoro-N-(methylsulfonyl)benzamide]"
6,4.7,"C[C@H](c1ccc(Cl)cc1Cl)N1CCC(C)(COc2cc(F)c(C(=O)NS(C)(=O)=O)cc2C2CC2)CC1 [Example 281, (R)-5-cyclopropyl-4-((1-(1-(2,4-dichlorophenyl)ethyl)-4-methylpiperidin-4-yl)methoxy)-2-fluoro-N-(methylsulfonyl)benzamide]"
7,4.4,"COC[C@H](c1ccc(Cl)cc1Cl)N1CCC(COc2cc(F)c(C(=O)NS(C)(=O)=O)cc2C2CC2)CC1 [Example 282, (S)-5-cyclopropyl-4-((1-(1-(2,4-dichlorophenyl)-2-methoxyethyl)piperidin-4-yl)methoxy)-2-fluoro-N-(methylsulfonyl)benzamide]"
8,4,"COC[C@@H](c1ccc(Cl)cc1Cl)N1CCC(COc2cc(F)c(C(=O)NS(C)(=O)=O)cc2C2CC2)CC1 [Example 283, (R)-5-cyclopropyl-4-((1-(1-(2,4-dichlorophenyl)-2-methoxyethyl)piperidin-4-yl)methoxy)-2-fluoro-N-(methylsulfonyl)benzamide]"
9,3.6,"CCS(=O)(=O)NC(=O)c1cc(C2CC2)c(OCC2CCN([C@H](C)c3ccc(Cl)cc3Cl)CC2)cc1F [Example 284, (R)-5-cyclopropyl-4-((1-(1-(2,4-dichlorophenyl)ethyl)piperidin-4-yl)methoxy)-N-(ethylsulfonyl)-2-fluorobenzamide]"
10,3.3,"CCS(=O)(=O)NC(=O)c1cc(C2CC2)c(OCC2CCN([C@@H](C)c3ccc(Cl)cc3Cl)CC2)cc1F [Example 285, (S)-5-cyclopropyl-4-((1-(1-(2,4-dichlorophenyl)ethyl)piperidin-4-yl)methoxy)-N-(ethylsulfonyl)-2-fluorobenzamide]"
11,5.4,"CCS(=O)(=O)NC(=O)c1cc(C2CC2)c(OCC2CCN([C@H](COC)c3ccc(Cl)cc3Cl)CC2)cc1F [Example 286, (S)-5-cyclopropyl-4-((1-(1-(2,4-dichlorophenyl)-2-methoxyethyl)piperidin-4-yl)methoxy)-N-(ethylsulfonyl)-2-fluorobenzamide]"
12,3.5,"CCS(=O)(=O)NC(=O)c1cc(C2CC2)c(OCC2CCN([C@@H](COC)c3ccc(Cl)cc3Cl)CC2)cc1F [Example 287, (R)-5-cyclopropyl-4-((1-(1-(2,4-dichlorophenyl)-2-methoxyethyl)piperidin-4-yl)methoxy)-N-(ethylsulfonyl)-2-fluorobenzamide]"
13,11,"O=C(NS(=O)(=O)N1CCC1)c1cc(C2CC2)c(OCC2CCN(c3ccccc3)CC2)cc1F [Example 291, N-(azetidin-1-ylsulfonyl)-5-cyclopropyl-2-fluoro-4-((1-phenylpiperidin-4-yl)methoxy)benzamide]"
14,2.9,"CS(=O)(=O)NC(=O)c1cc(C2CC2)c(OCC2CCN(c3cc(Cl)cc(Cl)c3)CC2)cc1F [Example 292, 5-Cyclopropyl-4-((1-(3,5-dichlorophenyl)piperidin-4-yl)methoxy)-2-fluoro-N-(methylsulfonyl)benzamide]"
15,5.2,"CS(=O)(=O)NC(=O)c1cc(C2CC2)c(OCC2CCN(c3ccccc3Cl)CC2)cc1F [Example 293, 4-((1-(2-Chlorophenyl)piperidin-4-yl)methoxy)-5-cyclopropyl-2-fluoro-N-(methylsulfonyl)benzamide]"
16,3.8,"CS(=O)(=O)NC(=O)c1cc(C2CC2)c(OCC2CCN(c3cccc(Cl)c3)CC2)cc1F [Example 294, 4-((1-(3-Chlorophenyl)piperidin-4-yl)methoxy)-5-cyclopropyl-2-fluoro-N-(methylsulfonyl)benzamide]"
17,2.3,"C[C@@H](c1ccc(F)cc1Cl)N1CCC[C@@H](Oc2cc(F)c(C(=O)NS(C)(=O)=O)cc2C2CC2)C1 [Example 295, 4-(((R)-1-((S)-1-(2-chloro-4-fluorophenyl)ethyl)piperidin-3-yl)oxy)-5-cyclopropyl-2-fluoro-N-(methylsulfonyl)benzamide]"
18,8.1,"C[C@H](c1ccc(F)cc1Cl)N1CCC[C@@H](Oc2cc(F)c(C(=O)NS(C)(=O)=O)cc2C2CC2)C1 [Example 296, 4-(((R)-1-((R)-1-(2-chloro-4-fluorophenyl)ethyl)piperidin-3-yl)oxy)-5-cyclopropyl-2-fluoro-N-(methylsulfonyl)benzamide]"
19,1.9,"CS(=O)(=O)NC(=O)c1cc(C2CC2)c(OCC2CCN(C(c3cc(Cl)cc(Cl)c3)C(F)(F)F)CC2)cc1F (stereo not shown) [Example 299, 5-cyclopropyl-4-((1-(1-(3,5-dichlorophenyl)-2,2,2-trifluoroethyl)piperidin-4-yl)methoxy)-2-fluoro-N-(methylsulfonyl)benzamide]"
20,1.6,"CS(=O)(=O)NC(=O)c1cc(C2CC2)c(OCC2CCN(C(c3ccc(F)cc3Cl)C(F)(F)F)CC2)cc1F (stereo not shown) [Example 300, 4-((1-(1-(2-chloro-4-fluorophenyl)-2,2,2-trifluoroethyl)piperidin-4-yl)methoxy)-5-cyclopropyl-2-fluoro-N-(methylsulfonyl)benzamide]"
21,3,"CS(=O)(=O)NC(=O)c1cc(C2CC2)c(OCC2CCN(C(c3ccc(F)c(Cl)c3)C(F)(F)F)CC2)cc1F (stereo not shown) [Example 301, 4-((1-(1-(3-chloro-4-fluorophenyl)-2,2,2-trifluoroethyl)piperidin-4-yl)methoxy)-5-cyclopropyl-2-fluoro-N-(methylsulfonyl)benzamide]"
